From DBAASP
≈ marks a conversion by molar mass, not a printed value.

How the values were obtained:
Test in all cases: ≥ marks a high value that may be exact or a test limit, other limits are often not marked, values filed in µg/mL are converted to µM
[1] = tested on: Escherichia coli ATCC 25922
[2] = tested on: Staphylococcus aureus ATCC 29213
[3] = tested on: Escherichia coli
[4] = tested on: Staphylococcus aureus
[5] = tested on: Pseudomonas aeruginosa ATCC 27853

Row | MIC [1] | MIC [2] | MIC [3] | MIC [4] | MIC [5] | SMILES
1 | 98.3 µM (≈ 125 µg/mL) | 49.2 µM (≈ 62.5 µg/mL) | – | – | – | CC(C)[C@H](NC(=O)[C@H](Cc1c[nH]c2ccccc12)NC(=O)[C@H](CCCCN)NC(=O)[C@@H](N)CCCN=C(N)N)C(=O)N[C@@H](C)C(=O)N[C@@H](Cc1c[nH]c2ccccc12)C(=O)N[C@@H](CCCN=C(N)N)C(=O)N[C@@H](CC(N)=O)C(=O)N[C@@H](CCCN=C(N)N)C(=O)O [RKWVAWRNR]
2 | 5 µM (≈ 8.79 µg/mL) | > 40 µM | – | – | – | CC[C@H](C)[C@H](NC(=O)[C@H](CCCN=C(N)N)NC(=O)[C@H](CCC(N)=O)NC(=O)[C@H](Cc1cnc[nH]1)NC(=O)[C@@H](NC(=O)[C@H](CCCN=C(N)N)NC(=O)[C@H](CCCCN)NC(=O)[C@@H](N)Cc1ccccc1)[C@@H](C)CC)C(=O)N[C@@H](CCCCN)C(=O)N[C@@H](CC(=O)O)C(=O)N[C@@H](Cc1ccccc1)C(=O)N[C@@H](CC(C)C)C(=O)N[C@@H](CCCN=C(N)N)C(=O)O [FKRIHQRIKDFLR]
3 | – | – | 3.36 µM (≈ 6 µg/mL) | 3.36 µM (≈ 6 µg/mL) | – | CC(C)C[C@H](NC(=O)[C@H](Cc1ccccc1)NC(=O)[C@@H]1CCCN1C(=O)[C@H](Cc1ccccc1)NC(=O)[C@H](Cc1ccccc1)NC(=O)[C@H](Cc1ccccc1)NC(=O)[C@@H]1CCCN1C(=O)[C@H](Cc1ccccc1)NC(=O)[C@H](CCCN=C(N)N)NC(=O)[C@H](CCCN=C(N)N)NC(=O)[C@@H](N)C(C)C)C(=O)N[C@@H](CCCN=C(N)N)C(=O)N[C@@H](CCCN=C(N)N)C(N)=O [VRRFPFFFPFLRR]
4 | 5 µM (≈ 9.18 µg/mL) | > 40 µM | – | – | – | CC(C)C[C@H](NC(=O)[C@H](CCCCN)NC(=O)[C@H](CC(C)C)NC(=O)[C@H](CC(C)C)NC(=O)[C@H](CCCCN)NC(=O)[C@H](CCCCN)NC(=O)[C@H](CCCCN)NC(=O)[C@H](CC(C)C)NC(=O)[C@H](CCCCN)NC(=O)[C@H](CC(C)C)NC(=O)[C@H](CC(C)C)NC(=O)[C@H](CCCCN)NC(=O)[C@H](CCCCN)NC(=O)[C@@H](N)CC(C)C)C(=O)N[C@@H](C)C(=O)NCC(=O)O [LKKLLKLKKKLLKLAG]
5 | – | – | 3.5 µM (≈ 6.91 µg/mL) | 22 µM (≈ 43.4 µg/mL) | – | CC[C@H](C)[C@H](NC(=O)[C@H](Cc1c[nH]c2ccccc12)NC(=O)[C@H](CCCCN)NC(=O)[C@@H](NC(=O)[C@H](CC(C)C)NC(=O)[C@@H](N)CCCCN)C(C)C)C(=O)N[C@H](C(=O)N[C@@H](CCCCN)C(=O)N[C@H](C(=O)N[C@H](C(=O)N[C@@H](CC(N)=O)C(=O)N[C@@H](CCCCN)C(=O)N[C@@H](Cc1ccccc1)C(=O)N[C@H](C(=O)N[C@@H](CCCCN)C(=O)N[C@@H](CCCCN)C(=O)O)[C@@H](C)O)C(C)C)[C@@H](C)O)[C@@H](C)CC [KLVKWIIKTVNKFTKK]
6 | 2.5 µM (≈ 4.55 µg/mL) | > 40 µM | – | – | – | CC(C)C[C@H](NC(=O)[C@H](CCCCN)NC(=O)[C@H](CC(C)C)NC(=O)[C@H](CC(C)C)NC(=O)[C@H](CCCCN)NC(=O)[C@H](CCCCN)NC(=O)[C@H](CC(N)=O)NC(=O)[C@H](CC(C)C)NC(=O)[C@H](CCCCN)NC(=O)[C@H](CC(C)C)NC(=O)[C@H](CC(C)C)NC(=O)[C@H](CCCCN)NC(=O)[C@H](CCCCN)NC(=O)[C@@H](N)CC(C)C)C(=O)N[C@@H](C)C(=O)NCC(=O)O [LKKLLKLNKKLLKLAG]
7 | 406 µM (≈ 600 µg/mL) | > 474 µM | – | – | – | CC[C@H](C)[C@H](NC(=O)[C@@H](N)Cc1ccccc1)C(=O)N[C@@H](CC(C)C)C(=O)N[C@@H](CCCCN)C(=O)N[C@@H](CCCN=C(N)N)C(=O)N[C@@H](CO)C(=O)N[C@@H](Cc1ccc(O)cc1)C(=O)N1CCC[C@H]1C(=O)N[C@@H](CCC(N)=O)C(=O)N[C@@H](Cc1ccc(O)cc1)C(=O)N[C@@H](Cc1ccc(O)cc1)C(N)=O [FILKRSYPQYY]
8 | 3.6 µM (≈ 7.88 µg/mL) | 14.6 µM (≈ 32 µg/mL) | – | – | – | CC[C@H](C)[C@H](NC(=O)[C@@H](NC(=O)[C@H](CCCCN)NC(=O)[C@@H](NC(=O)[C@H](C)NC(=O)[C@@H](NC(=O)[C@H](Cc1cnc[nH]1)NC(=O)CNC(=O)[C@H](C)NC(=O)[C@H](CC(C)C)NC(=O)[C@H](CC(=O)O)NC(=O)[C@H](CCCCN)NC(=O)[C@H](C)NC(=O)[C@H](C)NC(=O)CNC(=O)[C@H](CCCCN)NC(=O)[C@H](CC(C)C)NC(=O)[C@@H](NC(=O)[C@H](CC(=O)O)NC(=O)[C@H](CC(C)C)NC(=O)[C@@H](NC(=O)CN)C(C)C)[C@@H](C)CC)C(C)C)[C@@H](C)O)C(C)C)C(=O)O [GVLDILKGAAKDLAGHVATKVI]
9 | 20 µM (≈ 34.7 µg/mL) | 14.1 µM (≈ 24.5 µg/mL) | – | – | – | CC(=O)N[C@@H](CCCCN)C(=O)N[C@@H](CC(C)C)C(=O)N[C@@H](CC(C)C)C(=O)N[C@@H](CCCCN)C(=O)N[C@@H](CC(C)C)C(=O)N[C@@H](CC(C)C)C(=O)N[C@@H](CCCCN)C(=O)N[C@@H](CCCCN)C(=O)N[C@@H](CC(C)C)C(=O)N[C@@H](CC(C)C)C(=O)N[C@@H](CCCCN)C(=O)N[C@@H](CC(C)C)C(=O)N[C@@H](CC(C)C)C(=O)N[C@@H](CCCCN)C(N)=O [KLLKLLKKLLKLLK]
10 | 10 µM (≈ 19.2 µg/mL) | 10 µM (≈ 19.2 µg/mL) | – | – | 20 µM (≈ 38.4 µg/mL) | NC(=O)[C@H](Cc1ccccc1)NC(=O)[C@H](Cc1ccccc1)NC(=O)[C@H](Cc1ccccc1)NC(=O)[C@H](Cc1ccccc1)NC(=O)[C@H](Cc1ccccc1)NC(=O)[C@@H]1CCCN1C(=O)[C@H](CCCN=C(N)N)NC(=O)[C@@H]1CCCN1C(=O)[C@H](CCCN=C(N)N)NC(=O)[C@@H]1CCCN1C(=O)[C@H](CCCN=C(N)N)NC(=O)[C@@H]1CCCN1C(=O)[C@H](CCCN=C(N)N)NC(=O)[C@@H](N)CCCN=C(N)N [RRPRPRPRPFFFFF]
11 | 10 µM (≈ 17.3 µg/mL) | > 40 µM | – | – | – | CC[C@H](C)[C@H](NC(=O)[C@H](CCCN=C(N)N)NC(=O)[C@H](CCC(N)=O)NC(=O)[C@@H](NC(=O)[C@H](CCC(N)=O)NC(=O)[C@H](CCCN=C(N)N)NC(=O)[C@H](CCCCN)NC(=O)[C@@H](N)Cc1ccccc1)C(C)C)C(=O)N[C@@H](CCCCN)C(=O)N[C@@H](CC(=O)O)C(=O)N[C@@H](Cc1ccccc1)C(=O)N[C@@H](CC(C)C)C(=O)N[C@@H](CCCN=C(N)N)C(=O)O [FKRQVQRIKDFLR]
12 | – | 9.44 µM (≈ 25 µg/mL) | – | – | – | CC(C)C[C@H](NC(=O)[C@H](Cc1c[nH]c2ccccc12)NC(=O)[C@H](CCCCN)NC(=O)[C@H](CCCCN)NC(=O)[C@H](C)NC(=O)[C@H](CO)NC(=O)[C@H](Cc1cnc[nH]1)NC(=O)[C@H](CC(C)C)NC(=O)[C@H](Cc1ccccc1)NC(=O)[C@H](CCCCN)NC(=O)[C@@H](N)CCCCN)C(=O)N[C@@H](CCCCN)C(=O)N[C@@H](C)C(=O)N[C@@H](Cc1ccccc1)C(=O)N[C@H](C(=O)N[C@@H](CCCCN)C(=O)N[C@@H](CC(C)C)C(=O)N[C@@H](Cc1ccccc1)C(=O)N[C@@H](CCCCN)C(=O)N[C@@H](CC(N)=O)C(=O)N[C@@H](Cc1c[nH]c2ccccc12)C(=O)O)C(C)C [KKFLHSAKKWLKAFVKLFKNW]
13 | 40 µM (≈ 69.8 µg/mL) | 40 µM (≈ 69.8 µg/mL) | – | – | 20 µM (≈ 34.9 µg/mL) | NC(=O)[C@H](Cc1c[nH]c2ccccc12)NC(=O)[C@H](Cc1c[nH]c2ccccc12)NC(=O)[C@H](Cc1c[nH]c2ccccc12)NC(=O)[C@@H]1CCCN1C(=O)[C@H](CCCN=C(N)N)NC(=O)[C@@H]1CCCN1C(=O)[C@H](CCCN=C(N)N)NC(=O)[C@@H]1CCCN1C(=O)[C@H](CCCN=C(N)N)NC(=O)[C@@H]1CCCN1C(=O)[C@H](CCCN=C(N)N)NC(=O)[C@@H](N)CCCN=C(N)N [RRPRPRPRPWWW]
14 | 20 µM (≈ 39.6 µg/mL) | 2.5 µM (≈ 4.95 µg/mL) | – | – | 20 µM (≈ 39.6 µg/mL) | NCC(=O)N[C@@H](CCCN=C(N)N)C(=O)N[C@@H](CCCN=C(N)N)C(=O)N1CCC[C@H]1C(=O)N[C@@H](CCCN=C(N)N)C(=O)N1CCC[C@H]1C(=O)N[C@@H](CCCN=C(N)N)C(=O)N1CCC[C@H]1C(=O)N[C@@H](CCCN=C(N)N)C(=O)N1CCC[C@H]1C(=O)N[C@@H](Cc1ccccc1)C(=O)N[C@@H](Cc1ccccc1)C(=O)N[C@@H](Cc1ccccc1)C(=O)N[C@@H](Cc1ccccc1)C(=O)N[C@@H](Cc1ccccc1)C(=O)O [GRRPRPRPRPFFFFF]
